Values quoted from earlier work in patent US20230404915A1, “RAPIDLY […] COMPOSTIONS AND METHODS (Nicotine)” (ORCOSA INC., priority 2020, published 2023).

Target: nicotinic acetylcholine receptors (nAChRs) (Homo sapiens, UniProt P17787+P43681)
Conditions: peak levels of nicotine after smoking a cigarette; brain α4β2 nAChRs

Sequence of nicotinic acetylcholine receptors (nAChRs) (P43681 29-627 limits assumed): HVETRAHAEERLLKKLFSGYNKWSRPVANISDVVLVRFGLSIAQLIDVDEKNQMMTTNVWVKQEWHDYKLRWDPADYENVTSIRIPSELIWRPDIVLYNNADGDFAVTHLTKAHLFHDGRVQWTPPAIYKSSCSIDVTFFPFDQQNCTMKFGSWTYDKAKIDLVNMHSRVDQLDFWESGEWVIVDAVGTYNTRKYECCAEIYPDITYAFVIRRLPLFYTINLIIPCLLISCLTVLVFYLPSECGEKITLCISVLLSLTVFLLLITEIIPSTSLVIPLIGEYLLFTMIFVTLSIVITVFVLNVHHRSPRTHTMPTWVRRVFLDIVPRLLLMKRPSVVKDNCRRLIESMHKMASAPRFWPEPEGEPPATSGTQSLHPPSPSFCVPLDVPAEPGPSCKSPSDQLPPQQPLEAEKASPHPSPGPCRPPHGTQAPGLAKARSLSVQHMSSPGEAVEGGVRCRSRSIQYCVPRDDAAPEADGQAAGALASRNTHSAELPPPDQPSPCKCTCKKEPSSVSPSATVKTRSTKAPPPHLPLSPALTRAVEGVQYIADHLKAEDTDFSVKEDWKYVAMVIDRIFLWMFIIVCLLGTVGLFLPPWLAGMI
Sequence of nicotinic acetylcholine receptors (nAChRs) (P17787 26-502): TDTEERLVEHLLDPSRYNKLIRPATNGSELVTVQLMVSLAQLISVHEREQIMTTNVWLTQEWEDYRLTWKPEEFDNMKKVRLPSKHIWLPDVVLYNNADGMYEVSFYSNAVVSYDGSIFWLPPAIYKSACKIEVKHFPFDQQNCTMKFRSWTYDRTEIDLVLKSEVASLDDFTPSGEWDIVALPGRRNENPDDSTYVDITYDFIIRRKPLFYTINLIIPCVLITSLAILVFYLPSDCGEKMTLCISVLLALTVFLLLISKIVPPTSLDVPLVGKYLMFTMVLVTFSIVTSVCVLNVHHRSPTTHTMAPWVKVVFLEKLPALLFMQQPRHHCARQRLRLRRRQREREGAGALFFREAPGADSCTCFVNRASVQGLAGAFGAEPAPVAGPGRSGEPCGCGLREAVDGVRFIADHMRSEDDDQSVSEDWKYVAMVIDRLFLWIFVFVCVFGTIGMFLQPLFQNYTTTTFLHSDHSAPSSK

For `CN1CCCC1c1cccnc1` (stereo not shown) [nicotine], the “binding to the nicotinic acetylcholine receptors (nAChRs), saturation” value is listed as “around 90%”.
